The target in assay [1] is T1, CCR2 (Homo sapiens, UniProt P41597). The following applies: bind or taxis not given; read-out: CCR2 antagonist potency; cited from earlier work.
For assay [2], the target named is T1, CCR2. The following applies: read-out: CCR2 IC(50) bind; cited from earlier work.
The target of assay [3] is T2, CCR2 (Mus musculus, UniProt P51683).
T2 construct: endogenous in cells
Nature of the assay: Antibody titers to ovalbumin after CLDC/ovalbumin vaccination with RS102895 (FIG. 33). It counts as in vivo, mice. The following applies: 5 mg/kg 1 day before, same day, 1 day after. Here is the method:
FIG. 33. Effects of co-administration of RS102895 (small molecule inhibitor, Tocris Bioscience), on antibody responses following vaccination via two different modes of administration i.p. (intraperitoneally) or SQ (subcutaneous). Mice were vaccinated SQ with standard vaccine adjuvant (CLDC) and 5 ug ovalbumin, and boosted 10 days later. The first group of mice (n=4 per group) received the vaccine only (cross-hatch bar). A second group of mice was vaccinated and also treated 1 day before, on the same day, and 1 day after with 5 mg/kg of the CCR2 antagonist RS102895 (horizontal line bar), administered i.p. A third group of mice was vaccinated and also treated 1 day before, on the same day, and 1 day after with 5 mg/kg of the CCR2 antagonist RS102895, administered s.c. at the site of vaccination (vertical line bar). Antibody titers to ovalbumin were determined 2 weeks after the boost and plotted as endpoint dilution titers for all animals in all groups. […]
Mice were vaccinated subcutaneous (s.c.) with standard vaccine adjuvant (CLDC) (Cationic liposome-DNA complexes) and 5 ug ovalbumin and boosted 10 days later. […] Antibody titers to ova were determined 2 weeks after the boost and plotted as endpoint dilution titers. […]

The target in assay [4] is T2, CCR2. Nature of the assay: IFN-γ release by spleen cells of vaccinated mice treated with RS102895 (FIG. 34). It counts as in vivo. The procedure: FIG. 34. Effects of co-administration of RS102895 (small molecule inhibitor, Tocris BioSciences), on spleen lymphocyte production of IFN-γ from vaccinated animals (T cell response). Mice were vaccinated s.c. with standard vaccine adjuvant (CLDC) and 5 ug ovalbumin and boosted 10 days later. A first group of mice (n=4 per group) received the vaccine only (cross-hatch). A second group of mice was vaccinated and also treated 1 day before, on the same day, and 1 day after with 5 mg/kg of the CCR2 antagonist RS102895, administered i.p. (horizontal line bar). A third group of mice was vaccinated and also treated 1 day before, on the same day, and 1 day after with 5 mg/kg of the CCR2 antagonist RS102895, administered s.q. at the site of vaccination (vertical line bar). The mice were sacrificed 2 weeks after the booster vaccination and spleen cells were incubated in vitro with ovalbumin (50 ug/ml) for 72 hours. Release of […] into the supernatants was determined by ELISA.
Mice were vaccinated s.c. with standard vaccine adjuvant (CLDC) and 5 ug ovalbumin and boosted 10 days later. One group of mice (n=4 per group) received the vaccine only. A second group of mice was vaccinated and also treated 1 day before, on the same day, and 1 day after with 5 mg/kg of the CCR2 antagonist RS102895, administered i.p. A third group of mice was vaccinated and also treated 1 day before, on the same day, and 1 day after with 5 mg/kg of the CCR2 antagonist RS102895, administered s.c. at the site of vaccination. The mice were sacrificed 2 weeks after the booster vaccination and spleen cells were incubated in vitro with ovalbumin (50 ug/ml) for 72 hours and release of IFN-γ into the supernatants was determined by ELISA. […] The data from this study is presented at FIG. 34.

A further assay concerns the target T3, human recombinant CCR2b (Homo sapiens, UniProt P41597).
T3 sequence (P41597 1-360 isoform P41597-2): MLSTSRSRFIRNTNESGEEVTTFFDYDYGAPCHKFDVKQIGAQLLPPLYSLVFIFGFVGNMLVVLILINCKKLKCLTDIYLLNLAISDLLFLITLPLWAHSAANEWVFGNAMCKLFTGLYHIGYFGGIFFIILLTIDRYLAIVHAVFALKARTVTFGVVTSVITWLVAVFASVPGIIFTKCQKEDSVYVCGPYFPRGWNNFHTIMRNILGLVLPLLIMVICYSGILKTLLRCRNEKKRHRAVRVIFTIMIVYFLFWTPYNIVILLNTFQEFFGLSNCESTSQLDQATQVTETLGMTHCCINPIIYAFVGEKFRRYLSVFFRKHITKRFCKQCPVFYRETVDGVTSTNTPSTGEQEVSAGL
The following applies: read-out: IC50 for inhibition of human recombinant CCR2b receptor; cited from earlier work.

A further assay addresses T4, human recombinant CCR1 (Homo sapiens, UniProt P32246).
T4 sequence (P32246 1-355): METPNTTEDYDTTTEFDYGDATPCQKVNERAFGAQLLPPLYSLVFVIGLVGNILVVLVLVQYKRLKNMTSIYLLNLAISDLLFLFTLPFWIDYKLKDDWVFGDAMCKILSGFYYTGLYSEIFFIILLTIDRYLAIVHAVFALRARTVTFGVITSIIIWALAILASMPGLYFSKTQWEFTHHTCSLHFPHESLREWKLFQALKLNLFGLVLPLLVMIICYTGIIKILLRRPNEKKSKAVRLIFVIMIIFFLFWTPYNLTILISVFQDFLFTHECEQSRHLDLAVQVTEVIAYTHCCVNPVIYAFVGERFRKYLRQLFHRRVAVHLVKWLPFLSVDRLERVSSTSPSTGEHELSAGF
Particulars: read-out: IC50 for inhibition of human recombinant CCR1 receptor; cited from earlier work.

Assay [5] relates to MCP-1-stimulated calcium influx. The following applies: read-out: IC50, block of MCP-1-stimulated calcium influx; cited from earlier work.
Assay [6] relates to MCP-1-stimulated chemotaxis. The following applies: read-out: IC50, block of MCP-1-stimulated chemotaxis; cited from earlier work.
The next assay has as its target T5, α1A receptor (Homo sapiens, UniProt P35348).
T5 sequence (P35348 1-466): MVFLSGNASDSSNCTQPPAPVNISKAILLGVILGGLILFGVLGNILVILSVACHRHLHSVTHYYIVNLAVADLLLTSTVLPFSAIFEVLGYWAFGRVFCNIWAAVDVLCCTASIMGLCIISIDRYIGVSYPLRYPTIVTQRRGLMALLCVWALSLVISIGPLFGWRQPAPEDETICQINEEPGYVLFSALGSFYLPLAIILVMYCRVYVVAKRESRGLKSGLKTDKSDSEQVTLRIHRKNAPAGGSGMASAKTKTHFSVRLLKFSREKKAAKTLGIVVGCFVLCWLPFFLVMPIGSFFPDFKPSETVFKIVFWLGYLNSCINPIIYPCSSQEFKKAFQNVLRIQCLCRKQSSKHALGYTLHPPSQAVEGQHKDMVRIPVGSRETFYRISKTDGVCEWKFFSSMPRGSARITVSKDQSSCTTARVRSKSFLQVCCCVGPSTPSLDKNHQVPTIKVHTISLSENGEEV
Particulars: cited from earlier work.

The target in a further assay is T6, α1D receptor (Homo sapiens, UniProt P25100).
T6 sequence (P25100 1-572): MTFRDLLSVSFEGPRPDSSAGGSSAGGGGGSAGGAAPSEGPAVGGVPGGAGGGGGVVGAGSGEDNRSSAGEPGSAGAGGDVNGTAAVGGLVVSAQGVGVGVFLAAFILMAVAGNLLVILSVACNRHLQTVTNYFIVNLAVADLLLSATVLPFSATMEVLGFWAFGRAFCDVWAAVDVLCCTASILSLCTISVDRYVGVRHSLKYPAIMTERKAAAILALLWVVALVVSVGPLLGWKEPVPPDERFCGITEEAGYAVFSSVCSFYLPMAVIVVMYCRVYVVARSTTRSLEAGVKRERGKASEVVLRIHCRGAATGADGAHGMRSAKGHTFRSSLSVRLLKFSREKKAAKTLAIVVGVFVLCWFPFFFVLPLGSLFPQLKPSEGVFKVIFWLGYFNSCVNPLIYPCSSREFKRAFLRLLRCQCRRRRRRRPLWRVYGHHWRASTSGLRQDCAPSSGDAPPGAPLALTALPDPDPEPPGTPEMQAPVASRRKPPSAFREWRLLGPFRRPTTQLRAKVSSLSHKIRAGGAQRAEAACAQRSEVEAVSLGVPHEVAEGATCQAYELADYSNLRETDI
Particulars: cited from earlier work.

The test system of a further assay is 5-HT1A receptor. The following applies: cited from earlier work.

Where two headings read alike, the source gives them in different places. Where only a bound is given, the exact number is not on record here.

T1 sequence (P41597 whole entry, species assumed): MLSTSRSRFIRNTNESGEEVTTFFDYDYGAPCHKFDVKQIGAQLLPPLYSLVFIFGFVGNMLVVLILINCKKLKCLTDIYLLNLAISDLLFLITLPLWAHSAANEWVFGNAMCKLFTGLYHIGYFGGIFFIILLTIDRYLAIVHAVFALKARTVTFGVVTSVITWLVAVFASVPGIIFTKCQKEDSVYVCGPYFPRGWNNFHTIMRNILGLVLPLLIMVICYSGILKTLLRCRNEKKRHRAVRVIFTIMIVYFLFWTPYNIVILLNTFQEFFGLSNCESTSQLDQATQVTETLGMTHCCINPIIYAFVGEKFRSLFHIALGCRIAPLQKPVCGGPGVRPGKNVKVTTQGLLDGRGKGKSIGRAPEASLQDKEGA
T2 sequence (P51683 whole entry): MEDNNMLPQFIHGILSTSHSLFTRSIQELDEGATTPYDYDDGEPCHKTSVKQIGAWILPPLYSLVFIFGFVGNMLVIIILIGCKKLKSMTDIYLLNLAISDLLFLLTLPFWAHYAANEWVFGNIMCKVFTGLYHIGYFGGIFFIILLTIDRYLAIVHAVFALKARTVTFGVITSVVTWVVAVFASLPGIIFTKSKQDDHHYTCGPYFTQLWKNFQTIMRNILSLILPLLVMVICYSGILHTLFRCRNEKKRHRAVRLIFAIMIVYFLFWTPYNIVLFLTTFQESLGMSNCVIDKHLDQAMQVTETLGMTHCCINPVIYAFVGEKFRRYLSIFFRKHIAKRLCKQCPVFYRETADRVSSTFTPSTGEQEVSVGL

Regarding `O=C(CNC(=O)c1ccccc1)NC1CCN(Cc2ccccc2)C1` (stereo not drawn) [3-Aminopyrrolidines], on CCR2 [1], the IC50 was 3 nM.

As to `CN(CCN1CCCCC1)c1ccc(-c2nc3cc(Sc4ccc(Cl)c(Cl)c4)ccc3[nH]2)cc1` [Benzimidazoles], at CCR2 [2], the IC50 is 200 to 300 nM.

For `Cl.O=C1Nc2ccccc2C2(CCN(CCc3ccc(C(F)(F)F)cc3)CC2)O1` [RS102895], the “antibody titers to ova relative to vaccine alone” value at CCR2 [3] (either route) is given as ≥ 2 ×. Also, the “antibody titers to ovalbumin vs vaccine alone” value at CCR2 [3] (i.p. or s.c., 2 weeks after boost) is given as “significantly higher antibody titers”. On CCR2 [4] (5 mg/kg SQ at site of vaccination, ovalbumin 50 ug/ml 72 hours, without CCR2 antagonist about 450), the “IFN-γ production by spleen cells” value is “about 1,400 pg/ml”. The “IFN-γ production by spleen lymphocytes” value at CCR2 [4] (5 mg/kg i.p., ovalbumin 50 ug/ml 72 hours, without CCR2 antagonist about 450) is “about 2,300 pg/ml”. Moreover, the “IFN-γ production vs vaccinated without RS102895” value at CCR2 [4] (5 mg/kg, either route) is on record as “significantly higher amounts of IFN-γ”. For the same compound, the IC50 on human recombinant CCR2b is 360 nM; on human recombinant CCR1, 17800 nM; in assay [5] it was 32 nM; in [6], 1700 nM. In addition, the “inhibition of α1A receptor” value at α1A receptor is on record as “inhibits”. For the same compound, the “inhibition of α1D receptor” value on α1D receptor is on record as “inhibits”. In addition, the “inhibition of 5-HT1A receptor” value in the assay with 5-HT1A receptor was “inhibits”.

In the case of `O=C(/C=C/c1ccc(Cl)c(Cl)c1)NC1CCC(CN2C3CCC2CC(c2c[nH]c4ccc(O)cc24)C3)CC1` (stereo not drawn) [SB-380732], at CCR2 [2], the IC50 was 50 nM.

These data come from patent publication US9320735B2, “Myeloid derived suppressor cell inhibiting agents” (Colorado State University Research Foundation, priority 2010, dated 2016).
